Measured values from ChEMBL document CHEMBL1151239, “New glycosides of the fungus Acremonium striatisporum isolated from a sea cucumber” (J Nat Prod, 2004).
pIC50: −log10 of the molar value.

Columns and labels:
[1] = Cytotoxicity against mouse EAC; format: functional, cell-based; settings: Ehrlich
[2] = Cytotoxicity against sea urchin egg; format: functional, Strongylocentrotus intermedius

Row | SMILES | pIC50 [1] | pIC50 [2]
1 | C=C[C@]1(C)C=C2C(=O)C[C@@H]3[C@](C)(CCC(=O)[C@]3(C)CO[C@@H]3O[C@H](CO)[C@@H](O)[C@@H](O)[C@@H]3O)[C@H]2CC1 | 4.60 | 4.00
2 | C=C[C@]1(C)C=C2[C@H](O)C[C@@H]3[C@](C)(CCC(=O)[C@]3(C)CO[C@@H]3O[C@H](CO)[C@@H](O)[C@@H](O)[C@@H]3O)[C@H]2CC1 | 4.60 | 4.00
3 | C=C[C@@]1(C)CCC2=C(C1)C(=O)C[C@H]1[C@@](C)(CO[C@@H]3O[C@H](CO)[C@@H](O)[C@@H](O)[C@@H]3O)C(=O)CC[C@]21C | 4.60 | 4.00
4 | C=C[C@@]1(C)CC[C@H]2C(=CC[C@@H]3[C@]2(C)C[C@@H](O)[C@H](O)[C@]3(C)CO[C@@H]2O[C@H](CO[C@H]3O[C@H](CO)[C@@H](O)[C@H](O)[C@H]3O)[C@@H](O)[C@@H](O)[C@@H]2O)C1 [VIRESCENOSIDE R] | 4.60 | 4.00
